US9751919B2, “Antimicrobial compositions comprising a hyaluronic acid binding peptide and a β-lactam antibiotic” (priority 2012, dated 2017)
Several values for one entry are separate records, joined by “and”; a condition that tells them apart may be missing. Identical values can stand only once. Marks after values point to notes of the source that are not given here.

Key:
VISA [1] = experiment: Checkerboard assay (FIC index); assay type: cell-based, Staphylococcus aureus;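 further: each agent diluted from 0.03 to 4 times its MIC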
Experimental: (§1) Checkerboard assays were carried out as described by Bonapace et al.
(§2) Diagnostic Microbiology and Infectious Diseases 2002; 44:363-366. In brief, checkerboard assays were performed in 96 well microtitre trays using an 8-by-8 well configuration. […] 96-well custom designed microtitre plates contained 100 ul/well of cation adjusted Mueller-Hinton broth (eg. for Enterobacteriaceae) with or without lysed horse blood (2-5% V/V) [eg. for S. pneumoniae] and were inoculated to achieve a final concentration of approximately 5×10^5 CFU/ml and incubated in ambient air for 24 hours prior to reading. Colony counts were performed periodically to confirm inocula. Quality control was performed every two weeks using a variety of ATCC QC organisms including; S. pneumoniae 49619, S. aureus 29213, E. faecalis 29212, E. coli 25922 and P. aeruginosa 27853. […] All peptides were assessed for synergy with β-lactams and vancomycin. For all antimicrobials as well as the peptides, CLSI criteria were used.
(§3) The fractional inhibitory concentration index (FIC index) was used to interpret synergy, antagonism or additivity/indifference. FIC index=FIC of drug A+FIC of drug B where:
(§4) The FIC of drug A and drug B was calculated as follows, FIC drug A=MIC of drug A in combination/MIC of drug A alone and FIC of drug B=MIC of drug B in combination/MIC of drug B alone. Synergy was defined as FIC index ≦0.5, additivity/indifference defined as a FIC between 0.5 and 4 and antagonism defined as an FIC index >4.
(§5) The checkerboard assays were carried out as described by Eliopoulos and Moellering (Chapter 9) in Antibiotic in Laboratory Medicine, Lorian Ed. 1996 as well as Bonapace et al. Diagnostic Microbiology and Infectious Diseases 2002; 44:363-366 and Bonapace et al. Diagnostic Microbiology and Infectious Diseases 2000; 38:43-50. In brief, checkerboard assays were performed in 96 well microtitre trays using an 8-by-8 well configuration. […] 96-well custom designed microtitre plates contained 100 ul/well of cation adjusted Mueller-Hinton broth (eg. for Enterobacteriaceae) with or without lysed horse blood (2-5% V/V) [eg. for S. pneumoniae] and were inoculated to achieve a final concentration of approximately 5×10^5 CFU/ml and incubated in ambient air for 24 hours prior to reading. Colony counts were performed periodically to confirm inocula. Quality control was performed every two weeks using a variety of ATCC QC organisms including; S. pneumoniae 49619, S. aureus 29213, E. faecalis 29212, E. coli 25922 and P. aeruginosa 27853. For all antimicrobials as well as PEP35, CLSI criteria was used.
(§6) The FIC of drug A and drug B is calculated as follows, FIC drug A=MIC of drug A in combination/MIC of drug A alone and FIC of drug B=MIC of drug B in combination/MIC of drug B alone. Synergy is defined as FIC index ≦0.5, additivity/indifference FIC >0.5-4 and antagonism FIC index >4.
(§7) Antimicrobials used included PEP35, cefazolin, ceftriaxone, vancomycin, linezolid, tigecycline and daptomycin versus Gram-positive cocci and PEP35, gentamicin, levofloxacin, piperacillin/tazobactam, meropenem and colistin (Polymyxin E) versus Gram-negative bacilli. These agents were obtained as laboratory grade powders from their respective manufacturers. Stock solutions were prepared and dilutions made as described by the Clinical Laboratory Standards Institute (2005 CLSI).
(§8) Organisms included Gram-positive cocci (2 strains of each): Methicillin-susceptible Staphylococcus aureus (MSSA), community-associated (CA) and healthcare-associated (HA) methicillin-resistant Staphylococcus aureus (MRSA), vancomycin-intermediate Staphylococcus aureus (VISA), vancomycin-resistant Staphylococcus aureus (VRSA), methicillin-resistant Staphylococcus epidermidis (MRSE), Streptococcus pyogenes, Streptococcus agalactiae, Streptococcus pneumoniae, Enterococcus faecalis, Enterococcus faecium and vancomycin-resistant enterococcus (VRE). […]

MSSA = experiment: Checkerboard assay (FIC index); assay type: cell-based, Staphylococcus aureus;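 further: each agent diluted from 0.03 to 4 times its MIC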
Experimental: as §1, §2, §3, §4, §5, §6, §7, §8

VISA [2] = experiment: MIC (CLSI broth dilution), agent alone; assay type: cell-based, Staphylococcus aureus; design: unit: µg/mL
Experimental: VISA (strains 92, 95 and 96), VRSA (strains 105 and 106) and E. coli (strain 69717) isolates were also tested. One MSSA was used as a control. All MICs were assessed using CLSI guidelines. Also assessed was the activity of cefazolin, ceftriazone, meropenem, and a piperacillin/tazobactam combination antibiotic. Minimum inhibitory concentration (MIC) is the lowest concentration of an antimicrobial that will inhibit the visible growth of a microorganism after incubation.
Antimicrobial Susceptibility Testing: A custom designed panel of antimicrobials was created. The panel included: PEP35, penicillin, piperacillin/tazobactam, cefazolin, ceftriaxone, meropenem, clarithromycin, clindamycin, gentamicin, amikacin, vancomycin, ciprofloxacin, levofloxacin, moxifloxacin, linezolid, trimethoprim/sulfamethoxazole and doxycycline. These agents were obtained as laboratory grade powders from their respective manufacturers. Stock solutions were prepared and dilutions made as described by the Clinical Laboratory Standards Institute (2005 CLSI). Following two subcultures from frozen stock the MICs of the antimicrobial agents for the isolates were determined by the CLSI 2005 approved broth macrodilution method. Briefly, test tubes containing doubling antibiotic dilutions (2 ml per tube) of cation adjusted Mueller-Hinton broth (eg. for Enterobacteriaceae) with or without lysed horse blood (2-5% V/V) [eg. for S. pneumoniae] were inoculated to achieve a final concentration of approximately 5×10^5 CFU/ml and incubated in ambient air for 24 hours prior to reading. Colony counts were performed periodically to confirm inocula. Quality control was performed every two weeks using a variety of ATCC QC organisms including; S. aureus 29213, E. faecalis 29212, E. coli 25922 and P. aeruginosa 27853. For all antimicrobials as well as PEP35, CLSI criteria were used.
One MSSA was used as a control. All MICs were assessed using CLSI guidelines.

E. coli = experiment: Checkerboard assay (FIC index); assay type: cell-based, Escherichia coli; conditions: for synergy (in words): with β-lactams, against E. coli
Experimental: as §1, §2, §3, §4, §5, §6, §7, §8

[3] = antibiotic combined with PEP35, VISA 92
[4] = antibiotic combined with PEP35, VISA 95
[5] = β-lactam combined with HybPEP35-1, VISA 96
[6] = β-lactam combined with PEP-52, VISA 96
[7] = β-lactam combined with Scrambled PEP35, VISA 96
[8] = antibiotic combined with PEP35, MSSA 83424
[9] = β-lactam combined with HybPEP35-1, MSSA 79333
[10] = β-lactam combined with PEP-52, MSSA 79333
[11] = β-lactam combined with Scrambled PEP35, MSSA 79333
[12] = antibiotic combined with PEP35, E. coli 69716
[13] = β-lactam combined with HybPEP35-1, E. coli 69716
[14] = β-lactam combined with PEP-52, E. coli 69716
[15] = β-lactam combined with Scrambled PEP35, E. coli 69716
[16] = antibiotic combined with PEP35, VISA 96
[17] = antibiotic combined with PEP35, MSSA 79333
[18] = antibiotic combined with PEP35, E. coli 70752

Row | Molecule | Avg ΣFIC (range) (VISA [1]; [3]) | Avg ΣFIC (range) (VISA [1]; [4]) | Avg ΣFIC (range) (VISA [1]; [5]) | Avg ΣFIC (range) (VISA [1]; [6]) | Avg ΣFIC (range) (VISA [1]; [7]) | Avg ΣFIC (range) (MSSA; [8]) | Avg ΣFIC (range) (MSSA; [9]) | Avg ΣFIC (range) (MSSA; [10]) | Avg ΣFIC (range) (MSSA; [11]) | MIC (VISA [2]; VISA 92) | MIC (VISA [2]; VISA 92, in µg/mL) | MIC (VISA [2]; VISA 95, in µg/mL) | MIC (VISA [2]; VISA 96) | MIC (VISA [2]; VISA 96, in µg/mL) | Avg ΣFIC (range) (E. coli; [12]) | Avg ΣFIC (range) (E. coli; [13]) | Avg ΣFIC (range) (E. coli; [14]) | Avg ΣFIC (range) (E. coli; [15]) | Avg ΣFIC (range) (VISA [1]; [16]) | Avg ΣFIC (range) (MSSA; [17]) | other results
1 | Cc1nnc(SCC2=C(C(=O)O)N3C(=O)[C@@H](NC(=O)Cn4cnnn4)[C@H]3SC2)s1 [Cefazolin] | 0.33 (0.18-0.53) and 0.45 (0.18-1.015) | 0.49 (0.31-0.62) and 0.37 (0.18-0.56) | 0.30 | >1* | 0.30 | 1.02 (0.75-1.25) | 0.57 | >1* | 0.57 | 128/128 | 128 | 128 and 64 | 32/32 | 64 and 32 | 1.1 | 1.1 | >1* | 1.1 |  |  | MIC (VISA [2]; VISA 95, listed as CEFAZOLIN, in µg/mL): 128
2 | CO/N=C(\C(=O)N[C@@H]1C(=O)N2C(C(=O)O)=C(CSc3nc(=O)c(=O)[nH]n3C)CS[C@H]12)c1csc(N)n1 [Ceftriaxone] | 0.52 (0.28-1.06) | 0.28 (0.09-0.56) and 0.37 (0.18-0.56) | 0.26 | >1* | 0.26 | 0.80 (0.5-1.12) | 0.98 | >1* | 0.98 | 1024/1024 | 1024 | 512 | 256 and 128/128 and 256/256 |  | 1.04 | 0.41 | >1* | 0.41 |  |  | MIC (VISA [2]; VISA 95, listed as CEFTRIAXONE, in µg/mL): 1024 and 512
3 | CCCCCCCCCC(=O)N[C@@H](Cc1c[nH]c2ccccc12)C(=O)N[C@H](CC(N)=O)C(=O)N[C@@H](CC(=O)O)C(=O)N[C@@H]1C(=O)NCC(=O)N[C@@H](CCCN)C(=O)N[C@@H](CC(=O)O)C(=O)N[C@H](C)C(=O)N[C@@H](CC(=O)O)C(=O)NCC(=O)N[C@H](CO)C(=O)N[C@@H]([C@H](C)CC(=O)O)C(=O)N[C@@H](CC(=O)c2ccccc2N)C(=O)O[C@@H]1C [Daptomycin, daptomycin] | 1.54 (1.015-2.5) | 1.23 (1.06-1.5) |  |  |  | 1.58 (1.015-2.5) |  |  |  |  |  |  |  |  |  |  |  |  | 1.21 (1.03-1.5) | 1.19 (1.03-1.5) | 
4 | CC(=O)NC[C@H]1CN(c2ccc(N3CCOCC3)c(F)c2)C(=O)O1 [Linezolid, linezolid] | 0.99 (0.75-1.12) | 0.98 (0.62-1.25) |  |  |  | 0.74 (0.515-1.06) |  |  |  |  |  |  |  |  |  |  |  |  | 0.77 (0.56-1.06) | 1.05 (0.75-1.25) | 
5 | C[C@@H](O)[C@H]1C(=O)N2C(C(=O)O)=C(S[C@@H]3CN[C@H](C(=O)N(C)C)C3)[C@H](C)[C@H]12 [Meropenem] |  |  | 0.45 | >1* | 0.45 |  | 1.11 | >1* | 1.11 |  | 16 | 16 | 8 and 8/8 |  |  | 1.21 | >1* | 1.21 | 0.41 | 0.52 | Avg ΣFIC (range) (E. coli; [18]): 1.21 (1.03-1.5)
6 | CN(C)c1cc(NC(=O)CNC(C)(C)C)c(O)c2c1C[C@H]1C[C@H]3[C@H](N(C)C)C(O)=C(C(N)=O)C(=O)[C@@]3(O)C(O)=C1C2=O [Tigecycline, tigecycline] | 0.56 (0.31-1.06) | 0.46 (0.37-0.56) and 0.43 (0.31-0.56) |  |  |  | 0.85 (0.5-1.12) |  |  |  |  |  |  |  |  |  |  |  |  | 0.91 (0.62-1.12) | 0.99 (0.62-1.5) | 
7 | CN[C@H](CC(C)C)C(=O)N[C@H]1C(=O)N[C@@H](CC(N)=O)C(=O)N[C@H]2C(=O)N[C@H]3C(=O)N[C@H](C(=O)N[C@H](C(=O)O)c4cc(O)cc(O)c4-c4cc3ccc4O)[C@H](O)c3ccc(c(Cl)c3)Oc3cc2cc(c3O[C@@H]2O[C@H](CO)[C@@H](O)[C@H](O)[C@H]2O[C@H]2C[C@](C)(N)[C@H](O)[C@H](C)O2)Oc2ccc(cc2Cl)[C@H]1O [Vancomycin] | 1.1 (1.0-1.25) | 1.1 (1.03-1.25) |  |  |  | 1.19 (1.03-1.5) |  |  |  | 4/4 |  |  | 4/4 |  |  |  |  |  | 0.88 (0.53-0.125) | 1.11 (1.0-1.25) | MIC (VISA [2]; VISA 95): 2 and 4
8 | KKKKKLQLQLNLIKKKVQVSVVVVRRH (Reordered human peptide sequence) [Scrambled PEP35] |  |  |  |  |  |  |  |  |  |  | 2048 | 2048 |  | 1024 |  |  |  |  |  |  | synergy (in words) (E. coli): not synergistic (except at low level with ceftriaxone)
9 | LKQKIKHVVKLKVVVKLRSQLVKRKQN (listed as Mus sp.) [PEP35] |  |  |  |  |  |  |  |  |  | 1024 and 2048/2048/2048 |  |  | 512 and 512/512/512 |  |  |  |  |  |  |  | synergy (in words) (E. coli): not synergistic
10 | piperacillin/tazobactam |  |  |  |  |  |  |  |  |  |  | 64 | 64 |  | 64 | 0.87 (0.56-1.12) and 0.63 (0.5-1.03) | 0.59 | >1* | 0.59 |  |  | Avg ΣFIC (range) (E. coli; [18]): 0.98 (0.62-1.25) and 0.63 (0.24-1.03); Avg ΣFIC (range) (E. coli; β-lactam combined with HybPEP35-1, E. coli 70752): 0.67; Avg ΣFIC (range) (E. coli; β-lactam combined with PEP-52, E. coli 70752): >1*; Avg ΣFIC (range) (E. coli; β-lactam combined with Scrambled PEP35, E. coli 70752): 0.67
